Key:
Type in all cases: cell-based, human
P-gp = assay: Western blot of P-gp; conditions: MCF-7/DOX cells, 24 h
Experimental: MCF-7 or MCF-7/DOX cells were incubated with various concentrations of 6b for 24 h. After trypsinization, cells were treated with 1× RIPA lysis buffer (50 mM Tris–HCl, pH 7.4, 150 mM NaCl, 0.25% deoxycholic acid, 1% NP-40, 1 mM EDTA and protease inhibitors) (Amresco, Solon, USA) to extract the total proteins. An aliquot of proteins from the total cell lysates (30 to 60 μg/lane) was separated by sodium dodecyl sulfate (10%) polyacrylamide gel electrophoresis (SDS–PAGE, Bio-Rad Laboratories, Hercules, CA), wet-transferred to NC membrane (Bio-Rad Laboratories, Hercules, CA) and blotted with primary antibodies specific for STAT3, p-STAT3, p-Jak2, Jak2, p-Src, Src, Erk, P-Erk, PARP, cleaved PARP, Bcl-2, Bax, Cyclin D1, P-gp and GAPDH. Bound immuno-complexes were detected using ChemiDOC™ XRS + system (Bio-Rad Laboratories, Hercules, CA).

MCF-7/DOX cells [1] = assay: MTT anti-proliferative assay, MCF-7/DOX; conditions: Homo sapiens, MCF7-DOX; MTT, 48 h; read-out: MCF-7/DOX IC50 ± SD
Experimental: All cell lines were purchased from Cell Bank of Shanghai Institute of Biochemistry and Cell Biology, Chinese Academy of Sciences (Shanghai, China). Human breast carcinoma cells (MCF-7 and MCF-7/DOX), breast epithelial cells (MCF-10A) and normal human liver cells (LO2) were maintained in RPMI-1640 medium. All cells were supplemented with 12% fetal bovine serum containing 50 μg/ml penicillin and 50 μg/ml streptomycin. Cells were grown to 80% confluency in a tissue culture flask at 37 °C in a humidified atmosphere containing 5% CO2, and then were trypsinized with 1 × Trypsin-Versene and split. The MCF-7/DOX cell line we used was established from its parental cell line MCF-7 cell by gradually increasing the concentration of DOX to which the cells were exposed in a stepwise manner over a period of 8 months. […] The cells were incubated in drug-free medium for at least 1 week before use.
Cells (MCF-7, MCF-7/DOX, MCF-10A, LO2) were seeded in 96-well plates at a density of 3,000–6,000 cells per well. The cells were incubated overnight (16 h) in a humidified 5% CO2 incubator at 37 °C. After media removal, different concentrations of test compounds were added in triplicate to the plates in 200 μL of fresh media and were incubated with the cells at 37 °C for 48 h. […] Cell viability was evaluated using 3-(4, 5-dimethylthiazolyl)-2,5-diphenyltetrazoliumbromide (MTT). The absorbance was read by an ELISA reader (SpectraMax Plus384, Molecular Devices, Sunnyvale, CA) at a test wavelength of 570 nm and a reference wavelength of 630 nm. Cell viability was calculated using the following formula: […]

MCF-7/DOX cells [2] = assay: ROS detection by DCFH-DA flow cytometry, MCF-7/DOX; conditions: different concentrations (1, 2, 4 μM), 24 h
Experimental: MCF-7 or MCF-7/DOX cells were seeded at a density of 3 × 10^5 cells per well of a 6-well plate and treated with various concentrations of 6b (0, 1, 2, 4 μM) or 4 μM curcumin for 24 h. DCFH-DA was dissolved in serum-free medium and diluted to a final concentration of 10 μM. After treatment with 6b, the growth media was replaced with serum-free medium containing the probe. After incubation for 20 min at 37 °C, cells were washed with serum-free medium twice, digested by trypsin and resuspended in pre-warmed PBS buffer. The samples were then subjected to a flow cytometry assay using a BD FACSCalibur flow cytometer (Becton & Dickinson Company, Franklin Lakes, NJ).

MCF-10A cells = assay: Annexin V-APC/7-AAD flow cytometry of apoptosis, MCF-10A; conditions: concentrations up to 4 μM
Experimental: MCF-7, MCF-7/DOX or MCF-10A cells, at a density of 2.5 × 10^5 cells per well, were cultured in regular growth medium in 6-well plates for 24 h and treated in duplicate with different concentrations of 6b or curcumin for 24 h. The cells were harvested, washed and stained with 5 μL of Annexin V-APC and 5 μL of 7-AAD at room temperature for 15 min. Cells were then analyzed by flow cytometry (488 nm excitation and 600 nm emission filters) using a BD FACSCalibur flow cytometer (Becton & Dickinson Company, Franklin Lakes, NJ).

STAT3 = assay: IL-6 induced STAT3 phosphorylation (western blot); conditions: 6 h, IL-6 50 ng/mL 30 min
Experimental: MCF-7 or MCF-7/DOX cells were seeded in 6-well plates and allowed to adhere overnight. The following day, the cells were serum-starved. The cells were then left untreated or were treated with 6b (0.5–4 μM). After 6 h, the untreated and 6b-treated cells were stimulated with IL-6 (50 ng/ml). The cells were harvested after 30 min and analyzed by western blot.

In the case of COc1ccc(/C=C/C(=O)N2CCN(C(=O)C3=Cc4cc(Br)ccc4S3(=O)=O)CC2)cc1 [Compound 6b, (E)-1-(4-(5-bromo-1,1-dioxidobenzo[b]thiophene-2-carbonyl)piperazin-1-yl)-3-(4-methoxyphenyl)prop-2-en-1-one], the P-gp expression (P-gp) is reported as “decreased P-gp expression in MCF-7/DOX cells in a dose-dependent manner”, the IC50 (MCF-7/DOX cells [1]) is reported as 400 ± 10 nM and the “increase of ROS levels” value (MCF-7/DOX cells [2]) is reported as 2–8 fold. For the same compound, the apoptosis (MCF-10A cells) was “little”, the “STAT3 phosphorylation induced by IL-6” value (STAT3; MCF-7, 4 μM) was “almost completely abolished” and the “IL-6-induced phosphorylation levels of STAT3” value (STAT3; MCF-7, low concentration (0.5–4 μM tested)) was “decreased”.
